Measured values: patent US11767341B2, “Lincosamide antibiotics and uses thereof” (President and Fellows of Harvard College, priority 2017, dated 2023)
Converted amounts (≈) assume the structure as drawn. Like-named read-outs stand apart in the source and are kept apart here.

What was measured:
Test in all cases: MIC determination
Type in all cases: cell-based
[1] = test system: S. aureus MMX 3035 cErmA; settings: Staphylococcus aureus, MMX3035CERMA
[2] = test system: S. pyogenes ATCC 19615; settings: Streptococcus pyogenes, ATCC19615; S. pyogenes ATCC 19615; read-out: MIC
[3] = test system: S. pneumoniae MMX 3028 cErmB; settings: Streptococcus pneumoniae, MMX3028CERMB
[4] = test system: H. influenzae ATCC 49247; settings: Haemophilus influenzae, ATCC49247
[5] = test system: P. aeruginosa MMX Mex parent strain; settings: Pseudomonas aeruginosa
[6] = test system: S. pyogenes MMX 946 Macrolide-Resistant; settings: Streptococcus pyogenes
[7] = test system: B. fragilis ATCC 25285; settings: Bacteroides fragilis, ATCC25285
[8] = test system: S. aureus ATCC 29213; settings: Staphylococcus aureus
[9] = test system: E. coli MMX TolC parent strain; settings: Escherichia coli
[10] = test system: C. difficile BAA 1805; settings: Clostridioides difficile, BAA1805
[11] = test system: E. faecalis MMX 847 Macrolide-Resistant; settings: Enterococcus faecalis
[12] = test system: S. pneumoniae ATCC 49619; settings: Streptococcus pneumoniae, ATCC49619; S. pneumoniae ATCC 49619; read-out: MIC
[13] = test system: E. faecalis ATCC 29212; settings: Enterococcus faecalis
[14] = test system: E. coli ATCC 25922; settings: Escherichia coli
[15] = test system: P. aeruginosa ATCC 27853; settings: Pseudomonas aeruginosa, ATCC27853
[16] = test system: E. coli MMX 0121 ΔTolC; settings: Escherichia coli
[17] = test system: S. pneumoniae MMX 3031 cMefA; settings: Streptococcus pneumoniae, MMX3031CMEFA
[18] = test system: P. aeruginosa MMX 3476 Δmex; settings: Pseudomonas aeruginosa
[19] = test system: S. aureus BAA 977 iErmA; settings: Staphylococcus aureus, BAA977
[20] = test system: S. aureus Micromyx USA 300; settings: Staphylococcus aureus, USA300
[21] = test system: E. coli MP-74 LptD mutant; settings: Escherichia coli
[22] = test system: S. aureus MP-549 msr(a) USA 300; settings: Staphylococcus aureus, USA300, S. aureus MP-549 msr(a) USA 300
[23] = test system: K. pneumoniae ATCC 10031; settings: Klebsiella pneumoniae, ATCC10031; K. pneumoniae ATCC 10031; read-out: MIC
[24] = test system: E. coli MP-9 ΔTolC; settings: Escherichia coli
[25] = ATCC29213, S. aureus ATCC 29213, read-out: MIC
[26] = C. difficile BAA 1805, read-out: MIC
[27] = S. aureus Micromyx USA 300, read-out: MIC
[28] = S. aureus MMX 3035 cErmA, read-out: MIC
[29] = H. influenzae ATCC 49247, read-out: MIC
[30] = S. pyogenes MMX 946 Macrolide-Resistant (MacRes), read-out: MIC
[31] = B. fragilis ATCC 25285, read-out: MIC
[32] = E. coli MMX TolC parent strain, read-out: MIC
[33] = E. faecalis MMX 847 Macrolide-Resistant (MacRes), read-out: MIC
[34] = ATCC25922, E. coli ATCC 25922, read-out: MIC
[35] = P. aeruginosa MMX Mex parent strain, read-out: MIC
[36] = P. aeruginosa ATCC 27853, read-out: MIC

SMILES | MIC [1] [µg/mL] | MIC [2] [µg/mL] | MIC [3] [µg/mL] | MIC [5] [µg/mL] | MIC [6] [µg/mL] | MIC [8, 25] [µg/mL] | MIC [9] [µg/mL] | MIC [10, 26] [µg/mL] | MIC [11] [µg/mL] | MIC [12] [µg/mL] | MIC ([13]; ATCC29212, read-out: MIC) [µg/mL] | MIC ([14]; ATCC25922) [µg/mL] | MIC [15] [µg/mL] | MIC [16] [µg/mL] | MIC [17] [µg/mL] | MIC [18] [µg/mL] | MIC [19] [µg/mL] | MIC [20, 27] [µg/mL] | MIC [4, 29] [µg/mL] | MIC [7, 31] [µg/mL] | other results
CSC1O[C@H]([C@H](NC(=O)[C@H]2NC[C@@H]3CC(c4ccccc4)=CCO[C@H]32)[C@H](C)Cl)C(O)[C@@H](O)[C@H]1O (some centres unmarked) [FSA-507056] | > 32 | 0.25 (≈ 0.487 µM) | > 32 | > 32 | > 32 | 1 (≈ 1.95 µM) | > 32 | 16 (≈ 31.2 µM) | > 32 | 0.25 (≈ 0.487 µM) | 2 (≈ 3.9 µM) | > 32 | > 32 | > 32 | 0.12 (≈ 0.234 µM) | > 32 | 1 (≈ 1.95 µM) | 0.5 (≈ 0.975 µM) |  |  | MIC [4]: > 32 µg/mL; MIC [7]: > 32 µg/mL
CSC1O[C@H]([C@H](NC(=O)[C@H]2NC[C@@H]3CC(c4ccc(C(F)(F)F)cc4)=CCO[C@H]32)[C@H](C)Cl)C(O)[C@@H](O)[C@H]1O (some centres unmarked) [FSA-507060] |  | 0.25 (≈ 0.43 µM) | 16 (≈ 27.5 µM) | > 64 |  | 2 (≈ 3.44 µM) |  | 32 (≈ 55.1 µM) |  | 0.5 (≈ 0.861 µM) | 8 (≈ 13.8 µM) |  | > 64 | 16 (≈ 27.5 µM) | 0.25 (≈ 0.43 µM) | > 64 | 1 (≈ 1.72 µM) | 0.5 (≈ 0.861 µM) | 32 (≈ 55.1 µM) | 32 (≈ 55.1 µM) | MIC [1, 28]: 32 µg/mL (≈ 55.1 µM); MIC [6, 30]: 32 µg/mL (≈ 55.1 µM); MIC [9, 32]: 64 µg/mL (≈ 110 µM); MIC [11, 33]: 32 µg/mL (≈ 55.1 µM); MIC [14, 34]: 64 µg/mL (≈ 110 µM)
CSC1O[C@H]([C@H](NC(=O)[C@H]2NC[C@@H]3C[C@@H](c4ccc(F)cc4)CCO[C@H]32)[C@H](C)Cl)C(O)[C@@H](O)[C@H]1O (some centres unmarked) [FSA-507061] |  | ≤ 0.06 |  |  |  | 0.12 (≈ 0.225 µM) |  | 2 (≈ 3.75 µM) |  | ≤ 0.06 | ≤ 0.06 |  |  | 2 (≈ 3.75 µM) | ≤ 0.06 | > 64 | 0.25 (≈ 0.469 µM) | ≤ 0.06 | 4 (≈ 7.5 µM) | 64 (≈ 120 µM) | MIC [21]: 8 µg/mL (≈ 15 µM); MIC [22]: 0.125 µg/mL (≈ 0.234 µM); MIC [23]: 16 µg/mL (≈ 30 µM); MIC [1, 28]: 64 µg/mL (≈ 120 µM); MIC ([3]; S. pneumoniae MMX 3028 cErmB, read-out: MIC): 4 µg/mL (≈ 7.5 µM); MIC [5, 35]: > 64 µg/mL; MIC [6, 30]: 4 µg/mL (≈ 7.5 µM); MIC [9, 32]: > 64 µg/mL; MIC [24]: 4 µg/mL (≈ 7.5 µM); MIC [11, 33]: 32 µg/mL (≈ 60 µM); MIC [14, 34]: 64 µg/mL (≈ 120 µM); MIC [15, 36]: > 64 µg/mL
C[C@@H](O)[C@@H](NC(=O)[C@H]1NC[C@@H]2CC=CCO[C@H]21)[C@H]1OC(CN=[N+]=[N-])[C@H](O)[C@H](O)C1O (some centres unmarked) [FSA-211064] | > 64 | 4 (≈ 9.36 µM) | > 64 | > 64 | > 64 |  | > 64 | 64 (≈ 150 µM) | > 64 | 16 (≈ 37.4 µM) |  | > 64 | > 64 | > 64 | 16 (≈ 37.4 µM) | > 64 | > 64 |  |  |  | MIC [4]: > 64 µg/mL; MIC [7]: > 64 µg/mL; MIC ([8]; ATCC29213): > 64 µg/mL; MIC ([13]; ATCC29212): > 64 µg/mL; MIC [20]: > 64 µg/mL
CSC1O[C@H]([C@H](NC(=O)[C@H]2NC[C@@H]3C[C@H]4C[C@H]4CO[C@H]32)[C@H](C)Cl)C(O)C(O)[C@H]1O (stereo in doubt) [FSA-507007] |  | ≤ 0.06 | 64 (≈ 142 µM) |  |  | 0.25 (≈ 0.554 µM) |  | 4 (≈ 8.87 µM) |  | 0.12 (≈ 0.266 µM) |  |  |  | 8 (≈ 17.7 µM) | 0.12 (≈ 0.266 µM) | 64 (≈ 142 µM) | 0.5 (≈ 1.11 µM) | 0.12 (≈ 0.266 µM) | 2 (≈ 4.43 µM) | 32 (≈ 71 µM) | MIC [21]: 16 µg/mL (≈ 35.5 µM); MIC [22]: 0.25 µg/mL (≈ 0.554 µM); MIC [23]: > 64 µg/mL; MIC [1, 28]: > 64 µg/mL; MIC [5, 35]: > 64 µg/mL; MIC [6, 30]: 32 µg/mL (≈ 71 µM); MIC [9, 32]: > 64 µg/mL; MIC [24]: 16 µg/mL (≈ 35.5 µM); MIC [11, 33]: > 64 µg/mL; MIC ([13]; ATCC29212): 16 µg/mL (≈ 35.5 µM); MIC [14, 34]: > 64 µg/mL; MIC [15, 36]: > 64 µg/mL
CSC1O[C@H]([C@H](NC(=O)[C@H]2NC[C@@H]3C=C(c4ccccc4)CCO[C@@H]23)[C@H](C)Cl)C(O)[C@@H](O)[C@H]1O (some centres unmarked) [FSA-507031] | > 32 | 32 (≈ 62.4 µM) | > 32 | > 32 | > 32 |  | > 32 |  | > 32 | 32 (≈ 62.4 µM) |  | > 32 | > 32 | > 32 | 16 (≈ 31.2 µM) | > 32 | > 32 |  | 8 (≈ 15.6 µM) | 32 (≈ 62.4 µM) | MIC ([8]; ATCC29213): > 32 µg/mL; MIC [10]: > 32 µg/mL; MIC ([13]; ATCC29212): > 32 µg/mL; MIC [20]: > 32 µg/mL
